Measured values published in patent US20080279843A1, “Method For Improving Insulin Sensitivity By Administering an Inhibitor of Antitrypsin” (Essential SkinCare, LLC, priority 2003, published 2008).

Legend:
[1] = system: C57/Black female mice; experiment: Glucose tolerance test with insulin and commercial AT (Example 2); type: in vivo
Protocol: C57/Black female mice weighing 22-23 g were fasted for 16 hours. Four animals were used for each of four treatment groups. The first and fourth treatment group received intraperitoneal injections of 1500 μg commercially obtained AT. Exactly 23 hours and 45 minutes after the AT was administered to the first and fourth treatment group, the animals in the first and second treatment group received 0.5 I.U. of insulin. Exactly 15 minutes after the insulin was administered (i.e., 24 hours after the AT was administered to the first treatment group), glucose (3 g/kg) was injected intraperitoneally into the first, second and third treatment groups. Blood samples were taken from the eyes (canthus), and glucose concentrations in whole blood samples were immediately measured with the fast Glucose C test (Wako Chemicals USA Inc., Richmond, Va., USA). The data presented are the mean ±S.D. of four determinations, one with each animal.

[2] = system: C57/Black female mice; experiment: Glucose tolerance test with purified AT alone (Example 4); type: in vivo; details: mice fasted 24 h; for Glucose level: purified AT 1200 μg i.p. 24 h before glucose 3 g/kg i.p., mean ± S.D., n=4
Protocol: C57/Black female mice, weighing 22-25 g were fasted for 24 hours. Four animals were used for each of two groups. The first group received intraperitoneal injections of 1200 μg purified AT, i.e. AT purified by the procedure of Example 1. Exactly 24 hours after the AT was administered to the first group, glucose (3 g/kg) was injected intraperitoneally into mice in both groups. Blood samples were immediately measured with the fast Glucose C test (Wako Chemicals Inc. Richmond, Va., USA). The experiment was repeated a second time.
The data presented for each experiment are the mean ±S.D. of four determinations, one with each animal.

[3] = system: differentiated rat L6 muscle cells; experiment: Synthesis of [14C]glycogen from radiolabeled glucose; type: cell-based
Protocol: (§1) Rat L6 skeletal muscle cells were obtained from the American Type Culture Collection, Rockville, Md. L6 cell monolayers were induced to differentiate in Minimal Essential Medium (MEM) containing 2% (v/v) fetal bovine serum (FBS) and 1% (v/v) antibiotic/antimycotic solution. The cells were fed fresh medium every 48 hours. Myoblast differentiation, which occurred by about the 7-9th day, was monitored by phase contrast microscopy. Differentiated L6 cells are widely used models for studying glucose metabolism in the skeletal muscle. The present study was focused on these cells, because skeletal muscle accounts for about 70-80% of total blood glucose metabolism in the human body.
To examine cellular glucose uptake and metabolism, differentiated (attached) cells in 12-well plates were incubated at 37° C. in a CO2 incubator (95% air: 5% CO2) with D-[^14C]glucose (1 μCi/mL) in 2% FBS-containing medium containing 5.5 mM unlabeled glucose for 0.5-6 hours as indicated at the corresponding Figures. At the termination of incubation, the medium was removed. An aliquot of the medium was taken to determine the loss of [^14C]glucose from the medium which corresponds to its uptake by cells. Cells were washed twice with 3 ml medium to remove traces of medium containing unincorporated radioactivity. Ice-cold 99.8% methanol/0.2% water (v/v) mixture (1 ml) was then added to the monolayers and cells were extracted for 2 hours at −20° C. […] The methanol phase (1 ml) and a following 1 ml methanol wash were added to 2 ml chloroform followed by the addition of 3 ml water. Of the resulting two phases (separation was facilitated by brief centrifugation), the lower phase contained the total radiolabeled lipids, while the upper phase contained [^14C]glucose.
Aliquots of the upper and lower phases were taken to scintillation vials to determine the amounts of radiolabeled glucose and total lipids, respectively, by liquid scintillation counting. Precipitated [^14C]glycogen was suspended in 0.75 ml of 1 M NaOH and transferred to scintillation vial. This procedure was repeated with another 0.75 ml aliquot of NaOH. To neutralize the suspension, […] (approximately 150 μL) was then added to the vials, followed by the addition of 8.5 ml Ecolume (scintillation fluid). While the 1 M NaOH suspension contained some particulate material (mostly protein which was not labeled with radiolabeled glucose), no precipitate remained in the suspension after addition of Ecolume. […] No additional radioactivity could be removed from the well by neutralized 30% KOH.
In some experiments, a published procedure [Huang, D., Cheung, A. T., Parsons, J. T. and Bryer-Ash, M. “Focal adhesion kinase (FAK) regulates insulin-stimulated glycogen synthesis in hepatocytes.” J. Biol. Chem. 277, 18151-18160, (2002)] was used to determine glucose incorporation into glycogen in a method similar to the one described above. After incubations with [^14C] glucose, cells were solubilized with 20% KOH for 2 hours. Lysates were extracted with 8% […], neutralized with 2.0 M HCl, then boiled for 5 min. The total glycogen was precipitated by the addition of 80% ethanol (final concentration) for 2 hours at −20° C. followed by centrifugation at 1100×g for 10 min. This step was repeated.
After the pellets had been re-dissolved in distilled water, the samples were precipitated again using the same method described above, and yielded essentially the same results. In subsequent experiments the initial methanol precipitation method described above was used because it allowed for analysis of cellular glucose, glycogen and lipids from the same sample.
Three groups of differentiated L6 cells, incubated in 12-well plates in 2% FBS-containing medium, were treated as follows. A first control group ([…]) was untreated. A second group (▴) was treated with 500 nM insulin for 30 min. A third group (▪) was treated first with 0.4 mg/ml of AT followed by an addition of 500 nM insulin for 30 min. […]

[4] = system: differentiated rat L6 muscle cells; experiment: Synthesis of [14C]total lipid from radiolabeled glucose; type: cell-based; details: FIG. 4C, 5 hours
Protocol: as §1
To examine cellular glucose uptake and metabolism, differentiated (attached) cells in 12-well plates were incubated at 37° C. in a CO2 incubator (95% air: 5% CO2) with D-[^14C]glucose (1 μCi/mL) in 2% FBS-containing medium containing 5.5 mM unlabeled glucose for 0.5-6 hours as indicated at the corresponding Figures. […] Cells were washed twice with 3 ml medium to remove traces of medium containing unincorporated radioactivity. […]
Aliquots of the upper and lower phases were taken to scintillation vials to determine the amounts of radiolabeled glucose and total lipids, respectively, by liquid scintillation counting. […] No additional radioactivity could be removed from the well by neutralized 30% KOH. […]

[5] = highly purified AT 1200 μg i.p. 24 h before glucose 3 g/kg i.p.

In the case of α1-antitrypsin [AT], the “Effect of AT on the action of insulin on blood glucose level” value ([1]; FIG. 2, AT 1.5 mg/mouse i.p. 24 h prior, insulin 0.5 I.U., glucose 3 g/kg i.p.) is reported as “blocked the action of insulin”, the “Effect of AT alone on the blood glucose level” value ([1]; FIG. 2 insert, AT 1.5 mg/mouse i.p., no insulin, no glucose (fourth treatment group)) is reported as “no significant effect on the blood glucose level” and the Glucose level ([2]; Experiment 1, 0 min) is reported as 2.3 ± 0.3 mM. It also gave a Glucose level ([2]; Experiment 1, 30 min) of 8.5 ± 0.6 mM, a Glucose level ([2]; Experiment 1, 60 min) of 7.1 ± 0.5 mM and a Glucose level ([2]; Experiment 1, 120 min) of 6.1 ± 0.4 mM. The Glucose level ([2]; Experiment 1, 180 min) was 4.7 ± 0.5 mM, the Glucose level ([2]; Experiment 2, 0 min) was 2.7 ± 0.3 mM and the Glucose level ([2]; Experiment 2, 30 min) was 7.9 ± 0.3 mM. It also gave a Glucose level ([2]; Experiment 2, 60 min) of 6.5 ± 0.5 mM, a Glucose level ([2]; Experiment 2, 120 min) of 5.9 ± 0.4 mM and a Glucose level ([2]; Experiment 2, 180 min) of 4.5 ± 0.4 mM. The “Effect of AT on blood glucose level in the first 60 min after glucose” value [2, 5] was “no major effects in the first 60 min”, the “Effect of AT on return of blood glucose level to near-normal level during the next 120 min” value [2, 5] was “clearly delayed return of blood glucose level to near-normal level” and the “Effect of AT on the insulin effect on [14C]glycogen, short incubation” value ([3]; 0.4 mg/ml AT, 500 nM insulin, 30 min incubation) was “no such inhibitory effects”. The “Effect of AT on insulin-stimulated synthesis of [14C]glycogen” value ([3]; FIG. 3B, 0.4 mg/ml purified AT, incubations for 2 hrs or 6 hours) was “inhibited both insulin effects”, the “Effect of AT on cellular level of [14C]glycogen in the absence of insulin” value ([3]; FIG. 4B, 0.05 to 0.4 mg/ml AT, 5 hours) was “did not significantly affect” and the “Decrease of synthesis of cellular [14C]glycogen by AT in the presence of insulin” value ([3]; FIG. 4B, 0.2 to 0.4 mg/ml AT, 500 nM insulin, 5 hours) was “at least 50%”. For the same substance, the “Inhibition by AT of the insulin effect on [14C]glycogen synthesis” value ([3]; FIG. 5, 0.4 mg/ml AT, 500 nM insulin, 5 hours) was “about 70%”, the “Effect of AT on cellular level of [14C]total lipid in the absence of insulin” value ([4]; 0.05 to 0.4 mg/ml AT) was “did not significantly affect” and the “Decrease of synthesis of [14C]total lipid by AT in the presence of insulin” value ([4]; 0.2 to 0.4 mg/ml AT, 500 nM insulin) was “at least 50%”.
